Data from patent publication US9371289B2, “Phenoxyethyl dihydro-1H-isoquinoline compounds” (Eli Lilly and Company, priority 2013, dated 2016).
Structures can show the parent of a compound that is named as a salt.

What was measured:
human EP1 = target: T1, human EP1 (Homo sapiens, UniProt P34995); assay: In vitro binding to human EP1 ([3H]-PGE2 displacement, HEK293 membranes); conditions: [3H]-PGE2 binding, hEP1 membranes from recombinant HEK293 cells
T1 construct: expressed in transfected cells
T1 sequence (P34995 1-402): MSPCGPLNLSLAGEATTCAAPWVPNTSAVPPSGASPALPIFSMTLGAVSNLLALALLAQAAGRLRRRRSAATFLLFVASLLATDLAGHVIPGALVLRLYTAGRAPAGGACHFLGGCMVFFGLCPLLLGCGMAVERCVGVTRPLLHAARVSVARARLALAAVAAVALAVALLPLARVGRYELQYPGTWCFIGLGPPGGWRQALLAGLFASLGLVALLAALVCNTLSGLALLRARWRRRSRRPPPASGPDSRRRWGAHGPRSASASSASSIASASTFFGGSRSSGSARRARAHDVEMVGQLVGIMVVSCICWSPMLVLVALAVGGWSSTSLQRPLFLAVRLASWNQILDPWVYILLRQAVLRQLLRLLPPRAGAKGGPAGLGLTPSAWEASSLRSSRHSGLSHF
Protocol: (§1) hEP1 and hEP4 membranes are prepared from recombinant HEK293 cells stably expressing the human EP1 (Genbank accession number AY275470) or EP4 (Genbank accession number AY429109) receptors. hEP2 and hEP3 membranes are prepared from HEK293 cells transiently transfected with EP2 (Genbank accession number AY275471) or EP3 (isoform VI: Genbank accession number AY429108) receptor plasmids. Frozen cell pellets are homogenized in homogenization buffer using a Teflon/glass homogenizer. Membrane protein is aliquoted and quick frozen on dry ice prior to storage at −80° C. […]
(§2) Kd values for [3H]-PGE2 binding to each receptor are determined by saturation binding studies or homologous competition. […] Nonspecific binding is calculated by comparing binding in the presence and absence of 2 μM of PGE2. The membranes are harvested by filtration (TomTek harvester), washed 4 times with cold buffer (10 mM MES pH 6.0 with KOH, 10 mM MgCl2), dried in a 60° C. oven, and the radioactivity is quantified as counts per minute (CPM) using a TopCount® detector. Percent specific binding is calculated as the percent of the binding in the absence of any inhibitor, corrected for non-specific binding in the presence of 2 μM of PGE2. […]

human EP2 = target: T2, human EP2 (Homo sapiens, UniProt P43116); assay: In vitro binding to human EP2 ([3H]-PGE2 displacement, HEK293 membranes); conditions: [3H]-PGE2 binding, hEP2 membranes from transiently transfected HEK293 cells
T2 construct: expressed in transfected cells; host or cells: HEK293 (transient), membranes
Protocol: as §1, §2

human EP3 = target: T3, human EP3 (Homo sapiens, UniProt P43115); assay: In vitro binding to human EP3 ([3H]-PGE2 displacement, HEK293 membranes); conditions: [3H]-PGE2 binding, hEP3 (isoform VI) membranes from transiently transfected HEK293 cells
T3 construct: expressed in transfected cells; host or cells: HEK293 (transient), membranes
T3 sequence (P43115 1-374 isoform P43115-4): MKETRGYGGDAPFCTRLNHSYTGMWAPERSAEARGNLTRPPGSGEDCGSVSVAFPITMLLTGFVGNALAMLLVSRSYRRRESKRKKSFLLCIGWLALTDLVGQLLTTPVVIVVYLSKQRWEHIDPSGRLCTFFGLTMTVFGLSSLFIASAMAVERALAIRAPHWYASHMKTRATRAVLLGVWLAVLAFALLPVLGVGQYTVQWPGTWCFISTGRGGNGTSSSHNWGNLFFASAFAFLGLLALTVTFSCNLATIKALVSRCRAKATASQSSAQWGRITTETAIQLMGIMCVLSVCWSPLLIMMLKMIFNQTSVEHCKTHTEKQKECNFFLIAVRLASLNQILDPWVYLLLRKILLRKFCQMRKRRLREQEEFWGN
Protocol: as §1, §2

rat EP4 = target: T4, rat EP4 (Rattus norvegicus, UniProt P43114); assay: In vitro rat EP4 functional antagonist activity (cAMP HTRF); assay type: cell-based; conditions: HEK293 cells expressing rat EP4; PGE2 at EC80; n=1; read-out: IC50 measured at rat EP4 (cAMP)
T4 construct: expressed in transfected cells
Protocol: Rat EP4 cDNA (Genebank Accession# NM_03276) is cloned into pcDNA 3.1 vector and subsequently transfected in HEK293 cells for receptor expression. Rat EP4 stable clone is scaled up and then frozen down as cell bank for future compounds screening. To test EP4 antagonist compounds in rEP4 cells, thaw the frozen cells and then resuspend cells in cAMP assay buffer. The cAMP buffer is made by HBSS without Phenol Red (Hyclone, SH30268) supplemented with 20 mM HEPES (Hyclone, SH30237), 0.1% BSA (Gibco, 15260) and 125 μM IBMX (Sigma, 15879) (see e.g., Murase, A., et al., Life Sciences, 82:226-232 (2008)). The cells are plated into 96-well half area flat-bottom polystyrene black plates (Costar 3694). Compounds are serial diluted with DMSO to give 10-point concentration response curves. Then diluted compounds are added into cAMP assay buffer which contains PGE2 (Cayman 14010, in a concentration predetermined to produce an EC80) at ratio of DMSO/buffer at 1/100. The cells are treated with compounds in the presence of PGE2 (EC80 concentration) for 30 minutes at room temperature. The cAMP levels generated from the cells are quantified by a cAMP HTRF assay kit (Cisbio 62AM4PEC). The plates are read on an EnVision plate reader using HTRF optimized protocol (PerkinElmer). IC50s are calculated using Graphpad Prism (v. 4) nonlinear regression, sigmoidal dose response curve fitting.

human EP4 [1] = target: T5, human EP4 (Homo sapiens, UniProt P35408); assay: In vitro binding to human EP4 ([3H]-PGE2 displacement, HEK293 membranes); design: expressed in transfected cells; conditions: [3H]-PGE2 binding, hEP4 membranes from recombinant HEK293 cells
Protocol: as §1, §2

human EP4 [2] = target: T5, human EP4; assay: In vitro human EP4 functional antagonist activity (inhibition of PGE2-stimulated cAMP production, HTRF); assay type: cell-based; design: expressed in transfected cells; conditions: HEK293 cells stably expressing human EP4; PGE2 at EC80 (0.188 nM); read-out: IC50 measured at human EP4 (inhibition of PGE2-stimulated cAMP production)
Protocol: Assays are conducted in recombinant HEK293 cells stably expressing human EP4 receptor. The cell lines are maintained by culturing in DMEM with high glucose and pyridoxine hydrochloride (Invitrogen) supplemented with 10% fetal bovine serum (FBS), 1 mM sodium pyruvate, 10 mM HEPES, 500 μg/mL geneticin and 2 mM L-glutamine. Confluent cultures are grown at 37° C. in an atmosphere containing 5% CO2. Cells are harvested using 0.25% Trypsin-EDTA, suspended in freeze media (FBS with 6% DMSO) at 10^7 cells/mL and aliquots are stored in liquid nitrogen. Just before assay, cells are thawed in DMEM, centrifuged, and resuspended in cAMP buffer.
The inhibition of PGE2-stimulated cAMP production by EP4 antagonists is measured using HTRF (Cisbio catalogue #62AM4PEB). An aliquot equivalent to 4000 cells is incubated with 50 μL cAMP assay buffer containing PGE2 in a concentration predetermined to produce an EC80 (0.188 nM PGE2 from Sigma, catalog # P5640-10 mg) and EP4 antagonists at room temperature for 20 minutes. cAMP assay buffer contains 500 mL HBSS, 0.1% BSA, 20 mM HEPES and 200 μM IBMX (Sigma I5879). […] The HTRF signal is detected using an EnVision plate reader (Perkin-Elmer) to calculate the ratio of fluorescence at 665 nm to that at 620 nm. […]

human EP4 [3] = target: T5, human EP4; assay: In vitro antagonist activity in human whole blood (reversal of PGE2 inhibition of LPS-induced TNFα production); assay type: cell-based; design: Blood is collected from normal volunteer donors; from tissue; host or cells: human whole blood from volunteer donors; conditions: LPS 10 μg/mL with 10 nM PGE2, geometric mean ± standard deviation, read-out: IC50 in human blood TNFα induction assay
Text: The inhibitory effects of PGE2 on LPS-induced TNFα production from macrophages/monocytes are believed to be mediated by EP4 receptors (See Murase, A., et al., Life Sciences, 82:226-232 (2008)). The ability of the compound of Example 1 to reverse the inhibitory effect of PGE2 on LPS-induced TNFα production in human whole blood is an indicia of functional activity.
Blood is collected from normal volunteer donors into sodium heparin vacutainer tubes. Donors have not taken NSAIDs or celecoxib within 48 hours or glucocorticoids within two weeks prior to the donation. All tubes/donor are pooled into 50 mL Falcon conical centrifuge tubes and 98 μL/well is distributed into 96-well tissue culture plates (Falcon 3072). […] TNFα levels in 2 μL plasma are quantified by a commercially available enzyme immunoassay (R&D Systems DY210), using Immulon 4 HBX plates (Thermo 3855) and 3,3′,5,5′ tetramethylbiphenyl-4,4′-diamine substrate (KPL 50-76-03). The plates are read at A450-A650 on a plate reader (Molecular Devices Versamax) using SOFTmaxPRO (v. 4.3.1) software. IC50s are calculated using Graphpad Prism (v. 4) nonlinear regression, with sigmoidal dose response curve fitting. Results are expressed as the geometric mean±standard deviation; n=number of independent determinations.

T5 sequence (P35408 whole entry): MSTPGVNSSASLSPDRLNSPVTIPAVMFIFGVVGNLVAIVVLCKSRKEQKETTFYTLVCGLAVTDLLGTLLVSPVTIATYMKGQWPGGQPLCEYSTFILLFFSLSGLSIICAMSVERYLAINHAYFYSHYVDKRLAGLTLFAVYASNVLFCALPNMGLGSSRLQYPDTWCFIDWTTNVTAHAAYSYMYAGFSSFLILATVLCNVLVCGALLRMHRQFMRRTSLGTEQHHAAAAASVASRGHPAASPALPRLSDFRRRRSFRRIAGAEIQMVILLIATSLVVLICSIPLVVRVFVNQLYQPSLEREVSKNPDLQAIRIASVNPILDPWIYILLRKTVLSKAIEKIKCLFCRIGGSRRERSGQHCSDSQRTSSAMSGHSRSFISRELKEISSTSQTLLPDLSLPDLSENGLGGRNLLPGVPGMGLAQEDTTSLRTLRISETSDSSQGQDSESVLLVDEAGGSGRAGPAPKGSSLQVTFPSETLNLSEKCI
T2 sequence (P43116 whole entry): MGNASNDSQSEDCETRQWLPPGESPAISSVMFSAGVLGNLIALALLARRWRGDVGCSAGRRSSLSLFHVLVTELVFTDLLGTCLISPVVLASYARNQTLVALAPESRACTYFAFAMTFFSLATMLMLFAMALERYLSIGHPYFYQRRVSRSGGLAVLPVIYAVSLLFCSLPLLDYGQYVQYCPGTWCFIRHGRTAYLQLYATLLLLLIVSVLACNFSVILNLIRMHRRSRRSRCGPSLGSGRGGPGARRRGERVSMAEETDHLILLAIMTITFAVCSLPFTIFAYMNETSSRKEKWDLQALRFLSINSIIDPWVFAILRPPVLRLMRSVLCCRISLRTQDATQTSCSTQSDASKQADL
T4 sequence (P43114 whole entry): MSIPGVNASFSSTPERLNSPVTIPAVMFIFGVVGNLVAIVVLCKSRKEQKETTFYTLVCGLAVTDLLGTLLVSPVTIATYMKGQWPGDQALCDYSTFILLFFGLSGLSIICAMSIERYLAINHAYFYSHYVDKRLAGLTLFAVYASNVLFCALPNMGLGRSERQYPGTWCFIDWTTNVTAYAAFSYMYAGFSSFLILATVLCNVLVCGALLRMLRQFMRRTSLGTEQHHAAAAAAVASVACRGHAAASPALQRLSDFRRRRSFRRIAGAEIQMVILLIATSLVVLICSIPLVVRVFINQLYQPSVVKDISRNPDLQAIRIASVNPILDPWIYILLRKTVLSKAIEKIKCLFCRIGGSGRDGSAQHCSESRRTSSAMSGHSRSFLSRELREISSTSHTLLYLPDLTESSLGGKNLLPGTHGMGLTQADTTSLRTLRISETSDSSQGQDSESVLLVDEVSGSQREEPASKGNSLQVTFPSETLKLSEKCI

Ki (human EP1) | Ki (human EP2) | Ki (human EP3) | IC50 (rat EP4) | Ki (human EP4 [1]) | IC50 (human EP4 [2]) | IC50 (human EP4 [3]) | SMILES
4650 nM | 331 ± 72 nM | > 14600 nM | 6.7 nM | 0.38 ± 0.142 nM | 0.45 ± 0.256 nM | 61 ± 55 nM | C[C@H](NC(=O)[C@H]1Cc2ccccc2CN1CCOc1ccc(F)cc1)c1ccc(C(=O)O)cc1 [Example 2, 4-[(1S)-1-[[(3R)-2-(2-(4-fluorophenoxy)ethyl)-3,4-dihydro-1H-isoquinoline-3-carbonyl]amino]ethyl]benzoic acid hydrochloride]
7920 ± 5810 nM | 1320 ± 1780 nM | > 14800 nM | 2 nM | 0.403 ± 0.247 nM | 0.752 ± 0.538 nM | 39 ± 21 nM | C[C@H](NC(=O)[C@H]1Cc2ccccc2CN1CCOc1ccccc1)c1ccc(C(=O)O)cc1 [Example 1, 4-[(1S)-1-[[(3R)-2-(2-phenoxyethyl)-3,4-dihydro-1H-isoquinoline-3-carbonyl]amino]ethyl]benzoic acid]
